A word on the Emax: it is the maximal effect, on the per cent scale that the assay sets.

SMILES strings stand for the structures. Where “and” joins values, the source holds several entries; their conditions need not be identical. Equal entries are not always repeated.

What all share (type): cell-based
Test [1] has as its target T1, human muscarinic acetylcholine M1 receptor (M1R) (Homo sapiens, UniProt P11229).
T1 sequence (P11229 1-460): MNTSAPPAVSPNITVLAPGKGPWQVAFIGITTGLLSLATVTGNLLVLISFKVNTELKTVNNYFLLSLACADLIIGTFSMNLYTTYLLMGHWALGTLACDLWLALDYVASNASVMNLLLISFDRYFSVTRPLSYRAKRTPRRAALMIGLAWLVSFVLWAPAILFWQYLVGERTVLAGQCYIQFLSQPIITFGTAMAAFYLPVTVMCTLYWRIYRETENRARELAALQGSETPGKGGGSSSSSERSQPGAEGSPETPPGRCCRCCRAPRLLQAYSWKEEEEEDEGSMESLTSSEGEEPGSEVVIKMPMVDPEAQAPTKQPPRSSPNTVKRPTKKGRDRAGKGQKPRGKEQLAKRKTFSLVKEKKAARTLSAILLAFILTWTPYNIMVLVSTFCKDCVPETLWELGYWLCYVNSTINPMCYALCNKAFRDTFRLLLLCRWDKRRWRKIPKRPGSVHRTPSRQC
Briefly: Ca2+ mobilization counter-screen in M1R-CHOk1 cells. To be noted: individual replicates (Supplementary Figure 5). As for the experimental part:
Primary screening and pharmacological characterization of compounds were performed using a CHO-K1 cell line that stably expresses human GPR139 (GPR139-CHOk1). The GPR139-CHOk1 cell line was kindly provided by H. Lundbeck A/S, Denmark[24]. GPR139-CHOk1 cells were grown in Ham’s F-12 Kaighn’s Modification Medium (ThermoFisher #21127030) supplemented with 10% dialyzed fetal bovine serum (US origin, ThermoFisher #26400044), 100 units/mL Penicillin-Streptomycin (ThermoFisher #15140122), and 1 mg/mL Geneticin (ThermoFisher #11811031). […] M1R-CHOk1 cells were purchased from The Missouri S&T cDNA Resource Center (#CEM100TN00). M1R-CHOk1 cells were grown in Ham’s F12 Medium (ThermoFisher #21765029) supplemented with 10% fetal bovine serum (Brazilian origin, ThermoFisher #10270106), 100 units/mL Penicillin-Streptomycin, and 0.25 mg/mL Geneticin. HEK293A cells transiently transfected with GPR139 were used for additional pharmacological assessment of signaling pathways activated by GPR139. HEK239A cells were generously provided by Dr. Asuka Inoue, Tohoku University, Japan. HEK293A cells were grown in Dulbecco’s Modified Eagle Medium (ThermoFisher #31966047) supplemented with 10% dialyzed fetal bovine serum and 100 units/mL Penicillin-Streptomycin. Cell lines were maintained at 37 °C in humidified incubator equilibrated with 5% CO2.
30,000 GPR139- or M1R-CHOk1 cells/well were seeded in black clear bottom tissue culture treated 96-well plates (Greiner #655090) and grown for 20–24 h. Cells were washed with HEPES buffer (Hank’s Balanced Salt Solution (HBBS) supplemented with 20 mM HEPES, 1 mM MgCl2, and 1 mM CaCl2; pH 7.4). Cells were loaded with 50 µL of 2 µM Fluo-4 AM dye (ThermoFisher #F14202) in HEPES buffer supplemented with 2.5 mM probenecid and 0.01% Pluronic F-68 (ThermoFisher #24040032) for 1 h at 37 °C. Cells were washed with HEPES buffer. 50 µL HEPES buffer supplemented with 2.5 mM probenecid was added, and the cells were incubated for 10 min at 37 °C before measurement. 50 µL test compounds diluted in HEPES buffer from DMSO stocks (final DMSO concentration of maximally 0.3%) were added automatically after baseline measurements. The intracellular calcium mobilization was measured on a FlexStation 3 Multimode Microplate Reader (Molecular Devices) at 37 °C with filters for excitation of 485 nm and emission of 525 nm.
For orientation: Calcium assays in cells follow changes in intracellular calcium, usually with a dye or a luminescent sensor.

Test [2] addresses T2, GPR139 (Homo sapiens, UniProt Q6DWJ6).
T2 sequence (Q6DWJ6 1-353): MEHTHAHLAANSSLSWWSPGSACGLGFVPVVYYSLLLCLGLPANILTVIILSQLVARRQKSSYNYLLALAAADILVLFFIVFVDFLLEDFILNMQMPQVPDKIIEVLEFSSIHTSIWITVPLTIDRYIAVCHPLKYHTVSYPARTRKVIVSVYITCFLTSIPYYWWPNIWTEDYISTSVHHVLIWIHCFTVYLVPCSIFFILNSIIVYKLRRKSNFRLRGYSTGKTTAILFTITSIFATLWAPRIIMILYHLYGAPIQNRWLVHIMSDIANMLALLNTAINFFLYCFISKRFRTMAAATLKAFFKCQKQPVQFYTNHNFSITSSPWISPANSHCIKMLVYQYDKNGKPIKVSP
Briefly: Ca2+ mobilization assay, agonist mode, stable GPR139-CHOk1 cell line. The conditions noted are these: for EC50 / Emax: Supplementary Table 2, mean ± SEM; for EC50: read-out: pEC50 Ca2+ (converted); for Emax: normalized to Lundbeck Cmp 1a, read-out: Emax (%) Ca2+. The gist of the method: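 Agonist activity of compounds is assessed in stably transfected CHO-K1 cells using the calcium dye Fluo-4 at 37 °C in HEPES-buffered HBSS (pH 7.4). Efficacy is expressed relative to the reference agonist Lundbeck Cmp 1a, set as 100%.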

Test [3] addresses T2, GPR139. Briefly: Ca2+ mobilization assay, antagonist mode (EC80 800 nM Lundbeck Cmp 1a after 20 min preincubation), GPR139-CHOk1. To be noted: individual replicates (Supplementary Figure 4). The gist of the method:
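Fluo-4-loaded GPR139-CHOk1 cells in HEPES-buffered HBSS (pH 7.4, 2.5 mM probenecid) given test compounds at 10 µM, then after 20 min challenged with 800 nM Lundbeck Cmp 1a (EC80). Calcium fluorescence read at 37 °C, 485/525 nm.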

The mark [4] stands for this setting: Agonist mode, individual replicates (Supplementary Figure 4).
The mark [5] stands for this setting: log [Compound] M = -4.5, individual replicate columns.
Where [6] appears, read: log [Compound] M = -5.0, individual replicate columns.
[7] abbreviates: log [Compound] M = -5.5, individual replicate columns.
Setting [8] is: log [Compound] M = -6.0, individual replicate columns.
Setting [9] is: log [Compound] M = -6.5, individual replicate columns.
Setting [10] is: log [Compound] M = -7.0, individual replicate columns.
The mark [11] stands for this setting: log [Compound] M = -7.5, individual replicate columns.
Setting [12] is: log [Compound] M = -8.0, individual replicate columns.
[13] abbreviates: log [Compound] M = -8.5, individual replicate columns.
Setting [14] is: log [Compound] M = -9.0, individual replicate columns.

In the case of `COc1ccc(-c2nc(CC(=O)NC(C)c3ccccc3)no2)cn1` (stereo not drawn) [Compound 1.26, COC1=NC=C(C2=NC(CC(NC(C3=CC=CC=C3)C)=O)=NO2)C=C1], in test [1], the “Ca2+ signal (% of Carbachol)” value was -15 % of Carbachol and -8 % of Carbachol and 11 % of Carbachol. The “Ca2+ signal (% of Cmp 1a)” value is 85 % of Cmp 1a and 87 % of Cmp 1a and 69 % of Cmp 1a in test [2] (setting [4]); 87 % of Cmp 1a and 80 % of Cmp 1a and 98 % of Cmp 1a in test [2] (setting [5]); 81 % of Cmp 1a and 61 % of Cmp 1a and 119 % of Cmp 1a in test [2] (setting [6]); 56 % of Cmp 1a and 44 % of Cmp 1a and 97 % of Cmp 1a in test [2] (setting [7]); 34 % of Cmp 1a and 6.33 % of Cmp 1a and 46 % of Cmp 1a in test [2] (setting [8]); 12 % of Cmp 1a and -9 % of Cmp 1a and 7 % of Cmp 1a in test [2] (setting [9]). Also, the “Ca2+ signal (% of Cmp 1a)” value in test [2] (setting [10]) was 8 % of Cmp 1a and 3 % of Cmp 1a and 10 % of Cmp 1a; in test [2] (setting [11]), 2.67 % of Cmp 1a and 0 % of Cmp 1a and -4.67 % of Cmp 1a; in test [2] (setting [12]) it was -9 % of Cmp 1a (2×) and 6.33 % of Cmp 1a; in test [2] (setting [13]), 1 % of Cmp 1a and -7 % of Cmp 1a and 3.33 % of Cmp 1a; in test [2] (setting [14]), -3.33 % of Cmp 1a and -8 % of Cmp 1a and 15 % of Cmp 1a; in test [3] it was 29 % of Cmp 1a and 2 % of Cmp 1a and 52 % of Cmp 1a. Moreover, the EC50 in test [2] is 2 µM. Also, in test [2], the Emax was 94 ± 9%.

With `CCn1nc(-c2nc(CC(=O)NC(C)c3ccccc3)no2)cc1C` (stereo not drawn) [Compound 1.27, CCN1N=C(C2=NC(CC(NC(C3=CC=CC=C3)C)=O)=NO2)C=C1C], the “Ca2+ signal (% of Carbachol)” value in test [1] is -1.81 % of Carbachol and 1.46 % of Carbachol and 5 % of Carbachol. For the same compound, the “Ca2+ signal (% of Cmp 1a)” value in test [2] (setting [4]) was 81 % of Cmp 1a and 93 % of Cmp 1a and 60 % of Cmp 1a; in test [2] (setting [5]), 101 % of Cmp 1a and 107 % of Cmp 1a and 86 % of Cmp 1a; in test [2] (setting [6]) it was 91 % of Cmp 1a and 71 % of Cmp 1a and 89 % of Cmp 1a; in test [2] (setting [7]) it was 56 % of Cmp 1a and 61 % of Cmp 1a and 76 % of Cmp 1a; in test [2] (setting [8]), 25 % of Cmp 1a and 33 % of Cmp 1a and 48 % of Cmp 1a; in test [2] (setting [9]), 9 % of Cmp 1a and 7 % of Cmp 1a and 10 % of Cmp 1a. Further, the “Ca2+ signal (% of Cmp 1a)” value is 4.22 % of Cmp 1a and -3 % of Cmp 1a and 6.42 % of Cmp 1a in test [2] (setting [10]); 8 % of Cmp 1a and 2.12 % of Cmp 1a and -0.804 % of Cmp 1a in test [2] (setting [11]); 0.271 % of Cmp 1a and 9 % of Cmp 1a and -0.437 % of Cmp 1a in test [2] (setting [12]); -3 % of Cmp 1a and 2.65 % of Cmp 1a and 6.66 % of Cmp 1a in test [2] (setting [13]); 4 % of Cmp 1a and -0.687 % of Cmp 1a and 5 % of Cmp 1a in test [2] (setting [14]); 24 % of Cmp 1a and -1.33 % of Cmp 1a and 22 % of Cmp 1a in test [3]. In addition, the EC50 in test [2] is 2 µM. Also, the Emax in test [2] stood at 96 ± 6%.

The record behind these values is PMC12775434, “Ultra-large virtual screening unveils potent agonists of the neuromodulatory orphan receptor GPR139” (Nature Communications, 2025).
